In brackets after ≈: the same amount, converted by molar mass.
Tested on: HIV-1 (RF)
Test: HIV RNA assay: microplate based compound evaluation in HIV-1 infected MT-2 cells
Assay type: cell-based
Details: Human immunodeficiency virus 1, MT2, 72 h; HIV-1 (RF) infected MT-2 cells, 3 days culture; value used to standardize the virus inoculum; read-out: IC90 (concentration of compound required to reduce the HIV RNA level by 90%)
Protocol: Plasmid PDAB 72 containing both gag and pol sequences of BH10 (bp 113-1816) cloned into PTZ 19R was prepared according to Erickson-Vitanen et al. AIDS Research and Human Retroviruses 1989, 5, 577. The plasmid was linearized with Bam HI prior to the generation of in vitro RNA transcripts using the Riboprobe Gemini system II kit (Promega) with T7 RNA polymerase. Synthesized RNA was purified by treatment with RNase free DNAse (Promega), phenol-chloroform extraction, and ethanol precipitation. RNA transcripts were dissolved in water, and stored at −70EC. The concentration of RNA was determined from the A260.
Biotinylated capture probes were purified by HPLC after synthesis on an Applied Biosystems (Foster city, Calif.) DNA synthesizer by addition of biotin to the 5N terminal end of the oligonucleotide, using the biotin-phosphoramidite reagent of Cocuzza, Tet. Lett. 1989, 30, 6287. […]
MT-2 and MT-4 cells were maintained in RPMI 1640 supplemented with 5% fetal calf serum (FCS) for MT-2 cells or 10% FCS for MT-4 cells, 2 mM L-glutamine and 50 μg/mL gentamycin, all from Gibco. […] Infectious titers of HIV-1 (RF) stocks were 1-3×10^7 PFU (plaque forming units)/mL as measured by plaque assay on MT-2 cells (see below). […]

IC90: 0.2 µg/mL (≈ 0.947 µM)
SMILES: Nc1ccn([C@H]2CC[C@@H](CO)O2)c(=O)n1 [ddC, dideoxycytidine]

Source: US6943170B2, “N-cycloalkylglycines as HIV protease inhibitors” (Bristol-Myers Squibb Company, priority 2002, dated 2005)
